The target of one assay is EP2 (Homo sapiens (Human), UniProt P43116).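 Note: antagonism of PGE2-stimulated cAMP accumulation in SF295 human glioblastoma cells with endogenous EP2, cAMP read by HTRF, expressed relative to DMSO control.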
In the next assay the target is EP4 (Homo sapiens (Human), UniProt P35408). In words: hEP4 cAMP assay (BT549 breast cancer cells, HTRF cAMP). Type of assay: cell-based. The protocol: Plate is pre-incubated 45 minutes at room temperature. Subsequently, 2.5 microliters of PGE2 (final conc. 6 nM) are transferred into the assay plate. Plate is incubated 30 minutes at room temperature.
For orientation: cAMP levels reflect the balance of adenylyl cyclase and phosphodiesterase activity.

[1] abbreviates: antagonistic activity, mean values where measured multiple times.

Structures are written as SMILES.

Sequence of EP2 (P43116 whole entry): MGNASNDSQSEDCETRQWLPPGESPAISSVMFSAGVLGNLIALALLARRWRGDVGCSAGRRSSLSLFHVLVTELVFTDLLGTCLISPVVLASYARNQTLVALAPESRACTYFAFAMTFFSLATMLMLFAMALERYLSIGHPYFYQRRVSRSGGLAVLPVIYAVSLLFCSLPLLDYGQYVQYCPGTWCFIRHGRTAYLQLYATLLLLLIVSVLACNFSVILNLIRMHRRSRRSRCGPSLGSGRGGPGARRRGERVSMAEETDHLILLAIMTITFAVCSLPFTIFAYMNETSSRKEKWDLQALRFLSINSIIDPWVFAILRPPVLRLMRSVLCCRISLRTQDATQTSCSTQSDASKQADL
Sequence of EP4 (P35408 whole entry): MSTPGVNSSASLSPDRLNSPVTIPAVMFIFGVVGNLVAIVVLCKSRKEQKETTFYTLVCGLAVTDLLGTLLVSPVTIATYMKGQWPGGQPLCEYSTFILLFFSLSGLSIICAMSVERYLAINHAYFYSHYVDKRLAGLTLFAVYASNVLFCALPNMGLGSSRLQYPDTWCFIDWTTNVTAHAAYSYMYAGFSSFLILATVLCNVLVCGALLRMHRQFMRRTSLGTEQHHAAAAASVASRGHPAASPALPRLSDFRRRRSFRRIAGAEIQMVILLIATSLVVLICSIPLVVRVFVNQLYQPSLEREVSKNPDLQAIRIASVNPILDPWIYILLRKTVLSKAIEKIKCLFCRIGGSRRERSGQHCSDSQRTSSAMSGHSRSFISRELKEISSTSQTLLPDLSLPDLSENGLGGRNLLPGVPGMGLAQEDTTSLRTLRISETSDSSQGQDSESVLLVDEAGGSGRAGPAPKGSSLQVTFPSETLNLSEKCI

Broadly, the IC50 is the concentration at which inhibition is half-maximal. A low value points to inhibition by little substance. Regarding `Cc1cc(F)c(F)c2c1cc(C)n2CCNc1cc(-c2ccc(-c3cncn3C)cc2)ncn1` [compound 576], the values for the IC50 against EP2 and at EP4 (setting [1]) were 399 nM and 355 nM, respectively.
`Cc1cc2c(Cl)cc(Cl)cc2n1CCNc1cc(-c2ccc(-c3nc(C(=O)O)cs3)cc2)ncn1` [compound 551]: the concentration for half-maximal inhibition (IC50) against EP2 came to 5 nM; at EP4 (setting [1]), 339 nM.
The matching figures for `COc1ccc(F)c2c1cc(C)n2CCNc1cc(-c2ccc(-c3cnc(N)o3)cc2)ncn1` [compound 573]: 7 nM and 21 nM.
For `CCOc1cc(-c2cc(NCCn3c(Cl)cc4c(OC)ccc(F)c43)ncn2)sc1C(=O)O` [Example 777, 5-{6-[2-(2-Chloro-7-fluoro-4-methoxy-indol-1-yl)-ethylamino]-pyrimidin-4-yl}-3-ethoxy-thiophene-2-carboxylic acid], in that order: 2 nM and 3 nM.
`COc1ccc(F)c2c1cc(C)n2CCNc1cc(-c2ccc(C(=O)NCCN(C)C)cc2)ncn1` [compound 549]: the results for the IC50 at EP2 and at EP4 (setting [1]) were 131 nM and 865 nM, respectively.
The matching figures for `CCOc1cc(-c2cc(NCCn3c(C)cc4c(OC)cc(Cl)cc43)ncn2)ccc1C(=O)O` [compound 402]: 10 nM and 159 nM.
On to `COc1ccc(F)c2c1cc(C)n2CCNc1cc(-c2ccc(-c3cnc(CCC(=O)O)o3)cc2)ncn1` [compound 646], for which the values for the 50% inhibitory concentration (IC50) against EP2 and against EP4 (setting [1]) were 48 nM and 312 nM, respectively.
`CCOc1cc(-c2cc(NCCn3c(C#N)cc4c(OC)ccc(F)c43)ncn2)sc1/C=C/C(=O)O` [Example 931, (E)-3-(5-{6-[2-(2-Cyano-7-fluoro-4-methoxy-indol-1-yl)-ethylamino]-pyrimidin-4-yl}-3-ethoxy-thiophen-2-yl)-acrylic acid]: the 50% inhibitory concentration (IC50) worked out at 35 nM at EP2 and 14 nM at EP4 ((*): measured using the cAMP assay).
Take `COc1cc(F)cc2c1cc(C)n2CCNc1cc(-c2ccc(-c3cncn3C)cc2)ncn1` [compound 582]: the results for the half-inhibitory concentration (IC50) against EP2 and against EP4 (setting [1]) were 50 nM and 161 nM, respectively.
The matching figures for `COc1ccc(F)c2c1cc(C)n2CCNc1cc(-c2ccc(-c3ccccn3)cc2)ncn1` [compound 590]: 18 nM and 178 nM.
The matching figures for `COc1cc(F)c(F)c2c1cc(C)n2CCNc1cc(-c2ccc(C(=O)O)c(NCC(F)(F)F)c2)ncn1` [compound 644, 4-{6-[2-(6,7-Difluoro-4-methoxy-2-methyl-indol-1-yl)-ethylamino]-pyrimidin-4-yl}-2-(2,2,2-trifluoro-ethylamino)-benzoic acid]: 6 nM and 54 nM.
The matching figures for `COc1cc(F)c(F)c2c1cc(C)n2CCNc1cc(-c2ccc(C(=O)O)c(CC(C)C)c2)ncn1` [compound 621]: 34 nM and 57 nM.
As to `COc1ccc(Cl)c2c1cc(C)n2CCNc1cc(-c2ccc(C(=O)O)c(CC(C)C)c2)ncn1` [compound 536], the half-inhibitory concentration (IC50) against EP2 was 27 nM; at EP4 (setting [1]), 172 nM.
For `CNc1nnc(-c2ccc(-c3cc(NCCn4c(C)cc5c(C)cc(F)cc54)ncn3)cc2)s1` [compound 592], in that order: 13 nM and 39 nM.
The matching figures for `COc1cc(-c2cc(NCCn3c(C)cc4c(OC)cccc43)ncn2)ccc1-c1nnn[nH]1` [compound 670, [2-(4-Methoxy-2-methyl-indol-1-yl)-ethyl]-{6-[3-methoxy-4-(1H-tetrazol-5-yl)-phenyl]-pyrimidin-4-yl}-amine]: 8 nM and 406 nM.
The matching figures for `COc1cc(F)c(F)c2c1cc(C)n2CCNc1cc(-c2ccc(-c3noc(=O)[nH]3)cc2)ncn1` [compound 678, 3-(4-{6-[2-(6,7-Difluoro-4-methoxy-2-methyl-indol-1-yl)-ethylamino]-pyrimidin-4-yl}-phenyl)-4H-[1,2,4]oxadiazol-5-one]: 33 nM and 40 nM.
In the case of `Cc1c(F)cc(F)c2c1cc(C)n2CCNc1cc(-c2ccc(C(=O)O)c(CC(C)C)c2)ncn1` [compound 501], the IC50 against EP2 worked out at 42 nM; on EP4 (setting [1]) it was 69 nM.

Values taken from patent publication US12011444B2, “N-substituted indole derivatives as PGE2 receptor modulators” (Idorsia Pharmaceuticals Ltd, priority 2015, dated 2024).
